Tested on: FGFR
Experiment: Kinase inhibition, cell-free enzymatic assay
Type: biochemical
Conditions: 1 mM ATP

Which IC50 does the source give for `Cc1ccc(F)c(NC(=O)Nc2ccc(-c3cccc4[nH]nc(N)c34)cc2)c1` [RTKi, N-[4-(3-amino-1H-indazol-4-yl)phenyl]-N′-(2-fluoro-5-methylphenyl) urea] here?
The IC50 was greater than 12.5 µM.
